Literature values, collected in patent publication US5110799A, “Antiherpetic agents” (Merck & Co., Inc., priority 1989, dated 1992).

Molecular target: ribonucleotide reductase enzyme of herpes simplex virus (Human herpesvirus 1, UniProt P08543)
Conditions: in vitro; Dutia et al., Cohen et al., U.S. Pat. No. 4,795,740

Chain of ribonucleotide reductase enzyme of herpes simplex virus (P08543 whole entry): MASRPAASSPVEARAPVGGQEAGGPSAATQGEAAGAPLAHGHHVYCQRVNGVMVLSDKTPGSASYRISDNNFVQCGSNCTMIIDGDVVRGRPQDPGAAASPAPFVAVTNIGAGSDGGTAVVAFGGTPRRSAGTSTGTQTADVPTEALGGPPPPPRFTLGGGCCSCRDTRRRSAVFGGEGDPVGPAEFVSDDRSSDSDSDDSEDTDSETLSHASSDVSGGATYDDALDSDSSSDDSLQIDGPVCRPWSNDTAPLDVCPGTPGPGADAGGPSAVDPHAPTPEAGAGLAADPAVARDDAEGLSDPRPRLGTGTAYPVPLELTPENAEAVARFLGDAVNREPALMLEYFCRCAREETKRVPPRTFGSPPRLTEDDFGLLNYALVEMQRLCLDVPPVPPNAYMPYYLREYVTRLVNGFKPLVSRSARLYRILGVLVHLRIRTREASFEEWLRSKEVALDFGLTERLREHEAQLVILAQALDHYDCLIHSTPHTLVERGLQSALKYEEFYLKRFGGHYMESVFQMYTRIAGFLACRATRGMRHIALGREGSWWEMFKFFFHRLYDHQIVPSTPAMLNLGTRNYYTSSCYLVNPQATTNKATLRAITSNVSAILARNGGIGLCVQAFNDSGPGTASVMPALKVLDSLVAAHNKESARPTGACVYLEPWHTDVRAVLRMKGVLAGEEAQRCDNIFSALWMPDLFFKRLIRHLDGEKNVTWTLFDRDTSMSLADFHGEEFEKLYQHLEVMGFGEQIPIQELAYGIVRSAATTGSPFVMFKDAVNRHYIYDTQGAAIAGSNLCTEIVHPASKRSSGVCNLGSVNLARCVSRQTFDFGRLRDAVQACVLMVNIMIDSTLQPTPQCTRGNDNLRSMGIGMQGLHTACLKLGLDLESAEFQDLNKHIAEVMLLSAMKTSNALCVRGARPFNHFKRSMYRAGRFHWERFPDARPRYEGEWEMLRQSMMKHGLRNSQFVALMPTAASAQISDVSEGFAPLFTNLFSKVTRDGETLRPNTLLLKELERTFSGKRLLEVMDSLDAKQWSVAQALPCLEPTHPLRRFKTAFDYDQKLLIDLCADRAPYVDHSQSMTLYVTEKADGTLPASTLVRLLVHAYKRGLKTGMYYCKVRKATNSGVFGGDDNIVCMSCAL

| Substance | inhibition of the activity of HSV ribonucleotide reductase |
| --- | --- |
| Tyr Ala Gly Ala Val Val Asn Asp Leu | inhibited in vitro the activity of this enzyme |
| Tyr gly Ala Val Val Asn Asp Leu | inhibited in vitro the activity of this enzyme |
